{"source": "patent US7235236B2", "about": "“Polynucleotide encoding human adenylylcyclase VI and uses thereof for enhancing cardiac function” (priority 1995, dated 2007)", "origin": "cited, not measured here", "system": "GRK", "details": "chronic reduction of beta1-AR activation", "data": [{"compound": "CC(C)NCC(O)COc1ccc(COCCOC(C)C)cc1", "note": "(stereo not shown) [bisoprolol]", "values": [{"measurement": "GRK activity after chronic treatment", "value": "downregulation of GRK activity"}]}]}
